# According to patent US12504431B2, “Biomarkers for a therapy comprising a sorafenib compound” (Eisai R&D Management Co., Ltd., priority 2018, dated 2025):
# Where a name gives a salt, the structure may show the parent alone.
# Columns and labels:
# [1] = test system: Human FGF21-transfected HCC PLC/PRF/5 cells (FGF21-TF); assay: Antitumor activity in FGF21-TF tumor xenograft model in mice; assay type: in vivo, female nude mice; conditions: LEN 10 mg/kg and 30 mg/kg, SOR 30 mg/kg, orally once daily; FIG. 1
# Description: (§1) Methods: Human FGF21 and Mock-transfected HCC PLC/PRF/5 cells (FGF21-TF and Mock-TF, respectively) were established by using piggy-back system. To evaluate antitumor activity against these tumors, 4.2×10^6 cells of FGF21-TF or 4.3×10^6 cells of Mock-TF were subcutaneously injected into female nude mice (Charles River, Japan) with matrigel (BD Biosciences). When tumor volumes reached approximately 200-300 mm3, mice were divided into each group according to their tumor volumes and either lenvatinib mesylate (abbreviated as LEN) (10 mg/kg and 30 mg/kg) or Sorafenib tosylate (abbreviated as SOR) (30 mg/kg) was orally administered once daily. Follow-up analysis of a HCC patient-derived xenograft (PDX)-derived tumor (LI0334 HCC PDX tumor model treated with 3 mM HCl (vehicle for lenvatinib)) assessed FGF21 expression levels by immunohistochemistry. Three μm thick sections of paraffin-embedded tumor samples were de-paraffinized and hydrated. Antigen retrieval was performed by incubation of the samples in Dako REAL Target Retrieval sol. (pH6.0) (Dako) for 30 minutes. Endogenous hydrogen peroxidase activity was blocked by incubating the slides for 10 min with 3% hydrogen peroxide. The slides were incubated overnight with primary antibody, human rabbit anti-human FGF21 (ab64857. Abcam) at 1:100 in 1% BSA/PBS at 4° C. […]
# [2] = test system: Mock-transfected HCC PLC/PRF/5 cells (Mock-TF); assay: Antitumor activity in Mock-TF tumor xenograft model in mice; assay type: in vivo, female nude mice; conditions: LEN 10 mg/kg and 30 mg/kg, SOR 30 mg/kg, orally once daily; FIG. 1
# Description: as §1
# [3] = Relative body weight changes in mice with FGF21-TF and Mock-TF tumors; assay type: in vivo, female nude mice; conditions: LEN 10 mg/kg and 30 mg/kg, SOR 30 mg/kg, orally once daily; FIG. 2
# Description: as §1
# [4] = test system: LI0334 HCC PDX tumor; conditions: PDX tumor highly expressing FGF21; reported in Matsuki et al., AACR 2017; cited from earlier work
# [5] = test system: unresectable HCC; assay: Phase 3 study E7080-G000-304: OS and PFS by baseline serum FGF21 level; assay type: in vivo, human; conditions: for MST for PFS, high FGF21 group / MST for PFS, low FGF21 group / HR for PFS, high vs low FGF21 group: PFS by RECIST 1.1 (IIR); for MST for PFS, high FGF21 group / median OS (MST), high FGF21 group: baseline serum FGF21 at or above third quartile cutoff (688 ng/L); for MST for PFS, low FGF21 group / median OS (MST), low FGF21 group: baseline serum FGF21 below third quartile cutoff (688 ng/L); for HR for PFS, high vs low FGF21 group / HR for OS, high vs low FGF21 group: univariate Cox regression, third quartile cutoff (688 ng/L); for difference of PFS (RECIST 1.1) between high and low baseline FGF21 groups: third quantile cutoff point
# Description: E7080-G000-304 was a multicenter, randomized, open-label, noninferiority Phase 3 study to compare the efficacy and safety of lenvatinib versus sorafenib as a first-line systemic treatment in subjects with unresectable HCC. Subjects were randomly assigned in a 1:1 ratio to treatment with either lenvatinib 12 mg (baseline body weight [BW]≥60 kg) or 8 mg (baseline BW<60 kg) given once daily (QD) orally or sorafenib 400 mg given twice daily (BID) orally. Subjects were stratified by region, presence or absence of macroscopic portal vein invasion (MPVI) or extrahepatic spread (EHS) or both, Eastern Cooperative Oncology Group Performance Status (ECOG PS) 0 or 1, and BW (<60 kg or ≥60 kg). A total of 951 subjects (476 lenvatinib; 475 sorafenib) were enrolled and treated. Lenvatinib and sorafenib were self-administered by the subjects orally, at the same time each day (consistently either with or without food) in continuous 28-day cycles. Subjects received study treatment until disease progression, development of unacceptable toxicity, subject request, or withdrawal of consent.
# Of the 954 subjects enrolled in the clinical study and assigned to receive lenvatinib or sorafenib, 407 subjects (42.7% of all ITT subjects, lenvatinib arm, n=279 and sorafenib arm, n=128) were included in blood serum biomarker assay.
# Serum samples were collected at Day 1 of Cycle1 (pre-treatment). The serum levels of FGF21 at Day 1 of Cycle 1 (baseline level) in Samples from 279 subjects in the lenvatinib arm and 128 subjects in the sorafenib arm (total 407 subjects) were determined by enzyme-linked immunosorbent assay (ELISA). All biomarker data were transferred to study data tabulation model (SDTM) in accordance with the data transfer specification developed separately. Correlation between the serum baseline level of FGF21 and clinical outcome, such as progression free survival (PFS) was assessed. PFS was defined as the time from the date of randomization to the date of first documentation of disease progression or death.
# All statistical analyses were performed by the Clinical Data Science department at Eisai Co., Ltd. (Tokyo, Japan) after the clinical study was completed and a snapshot of the database was obtained on 13 Nov. 2016. For the correlation analyses with PFS, data sets based on independent imaging review (IIR) by RECIST 1.1 were used. Statistical analyses were performed using SAS version 9.3.
# For each baseline level of blood serum biomarker, correlation analysis with survival outcome measures (OS and PFS) was performed using univariate Cox regression for the lenvatinib arm and the sorafenib arm separately.
# Subjects were divided into two high-low groups based on the baseline level of each blood serum biomarker. The cutoff point was third quartile. Association between the groups and survival outcome measures (OS and PFS) was explored using univariate Cox regression and the Log-rank test with the selected cutoff points.
Structure (SMILES),antitumor activity (tumor volume changes) in the FGF21-TF model [1],antitumor activity (tumor volume changes) in the Mock-TF model [2],body weight losses associated with tumor presence compared to non-treatment [3],inhibition of the LI0334 HCC PDX tumor model [4],"MST for PFS, high FGF21 group [5]","MST for PFS, low FGF21 group [5]","HR for PFS, high vs low FGF21 group [5]","median OS (MST), high FGF21 group [5] [months]","median OS (MST), low FGF21 group [5] [months]",difference of PFS (RECIST 1.1) between high and low baseline FGF21 groups [5],"HR for OS, high vs low FGF21 group [5]"
"COc1cc2nccc(Oc3ccc(NC(=O)NC4CC4)c(Cl)c3)c2cc1C(N)=O [LEN, lenvatinib mesylate]",showed activity,showed antitumor activity,Neither treatment exacerbated body weight losses,inhibited by LEN,–,–,–,–,–,–,–
"COc1cc2nccc(Oc3ccc(NC(=O)NC4CC4)c(Cl)c3)c2cc1C(N)=O [Lenvatinib, 4-(3-chloro-4-(cyclopropylaminocarbonyl)aminophenoxy)-7-methoxy-6-quinolinecarboxamide]",–,–,–,–,7.5,8.0,1.184,10.9,18.0,no clear difference of PFS,1.745
"CNC(=O)c1cc(Oc2ccc(NC(=O)Nc3ccc(Cl)c(C(F)(F)F)c3)cc2)ccn1 [SOR, Sorafenib tosylate]",only LEN showed activity,showed antitumor activity,Neither treatment exacerbated body weight losses,–,–,–,–,–,–,–,–
"CNC(=O)c1cc(Oc2ccc(NC(=O)Nc3ccc(Cl)c(C(F)(F)F)c3)cc2)ccn1 [Sorafenib, 4-[4-[[4-chloro-3-(trifluoromethyl)phenyl]carbamoylamino]phenoxy]-N-methylpyridine-2-carboxamide]",–,–,–,–,2.4,5.5,1.783,6.8,17.8,short median PFS (RECIST 1.1) for high group than that of low group,3.341
